Laboratory results as given in ChEMBL document CHEMBL3588788, “Structure-activity relationship of hybrids of Cinchona alkaloids and bile acids with in vitro antiplasmodial and antitrypanosomal activities” (Eur J Med Chem, 2015).
pIC50: −log10 of the molar value. Values belong to the compound of their own block, whether it stands above or below them.

How the values were obtained:
[1] = Cytotoxicity against human WI38 cells by MTT assay; format: cell-based, WI-38; conditions: Homo sapiens, WI-38; read-out: IC50
[2] = system: Trypanosoma brucei brucei; assay: Antitrypanosomal activity against Trypanosoma brucei brucei Lister 427 bloodstream forms by microtiter plate based assay; format: functional, organism-based
in vitro = conditions: human, WI38 cells
Description: Selectivity index, ratio of IC50 against human WI38 cells to IC50 for Trypanosoma brucei brucei Lister 427 bloodstream forms

Plasmodium falciparum [3] = assay: Antiplasmodial activity against Plasmodium falciparum 3D7 assessed as reduction in parasite viability by parasite lactate dehydrogenase assay; format: functional, organism-based
[4] = Selectivity index, ratio of IC50 against human WI38 cells to IC50 for Plasmodium falciparum 3D7; format: toxicity, cell-based, WI-38; conditions: read-out: Ratio IC50
[5] = system: Trypanosoma brucei brucei; assay: Potency index, ratio of IC50 for CN to IC50 for test compound against Trypanosoma brucei brucei Lister 427 bloodstream forms by microtiter plate based assay; format: functional
Plasmodium falciparum [6] = assay: Potency index, ratio of IC50 for CN to IC50 for test compound against Plasmodium falciparum 3D7 by parasite lactate dehydrogenase assay; format: functional
[7] = system: Trypanosoma brucei brucei; assay: Potency index, ratio of IC50 for CND to IC50 for test compound against Trypanosoma brucei brucei Lister 427 bloodstream forms by microtiter plate based assay; format: functional
Plasmodium falciparum [8] = assay: Potency index, ratio of IC50 for CND to IC50 for test compound against Plasmodium falciparum 3D7 by parasite lactate dehydrogenase assay; format: functional

SMILES: C=C[C@H]1CN2CC[C@H]1C[C@@H]2[C@@H](O)c1cc(CC[C@@H](C)[C@H]2CC[C@H]3[C@@H]4C[C@H](OC(C)=O)[C@@H]5C[C@H](OC(C)=O)CC[C@]5(C)[C@H]4CC[C@]23C)nc2ccccc12
pIC50 [1]: 5.37
pIC50 [2]: 6.19
selectivity ratio (in vitro): 6.6
pIC50 (Plasmodium falciparum [3]): 6.73
selectivity ratio [4]: 23
Ratio IC50 [5]: 105.7
Ratio IC50 (Plasmodium falciparum [6]): 1.6

SMILES: C=C[C@H]1CN2CC[C@H]1C[C@@H]2[C@@H](O)c1cc(CC[C@@H](C)[C@H]2CC[C@H]3[C@@H]4[C@H](OC(C)=O)[C@H](OC(C)=O)[C@@H]5C[C@H](OC(C)=O)CC[C@]5(C)[C@H]4CC[C@]23C)nc2ccccc12
pIC50 [1]: 5.38
pIC50 [2]: 6.29
selectivity ratio (in vitro): 8.3
pIC50 (Plasmodium falciparum [3]): 7.39
selectivity ratio [4]: 102
Ratio IC50 [5]: 134.6
Ratio IC50 (Plasmodium falciparum [6]): 7.2

SMILES: C=C[C@H]1CN2CC[C@H]1C[C@H]2[C@H](O)c1cc(CC[C@@H](C)[C@H]2CC[C@H]3[C@@H]4C[C@H](OC(C)=O)[C@@H]5C[C@H](OC(C)=O)CC[C@]5(C)[C@H]4CC[C@]23C)nc2ccccc12
pIC50 [1]: 5.38
Ratio IC50 [7]: 52.5
pIC50 [2]: 5.93
selectivity ratio (in vitro): 3.5
Ratio IC50 (Plasmodium falciparum [8]): 8.3
pIC50 (Plasmodium falciparum [3]): 6.94
selectivity ratio [4]: 36

SMILES: C=C[C@H]1CN2CC[C@H]1C[C@H]2[C@H](O)c1cc(CC[C@@H](C)[C@H]2CC[C@H]3[C@@H]4[C@H](OC(C)=O)[C@H](OC(C)=O)[C@@H]5C[C@H](OC(C)=O)CC[C@]5(C)[C@H]4CC[C@]23C)nc2ccccc12
pIC50 [1]: 5.43
Ratio IC50 [7]: 119.8
pIC50 [2]: 6.28
selectivity ratio (in vitro): 7.2
Ratio IC50 (Plasmodium falciparum [8]): 26.6
pIC50 (Plasmodium falciparum [3]): 7.44
selectivity ratio [4]: 104

SMILES: C=C[C@H]1CN2CC[C@H]1C[C@H]2[C@H](O)c1cc(CC[C@@H](C)[C@H]2CC[C@H]3[C@@H]4CC[C@@H]5C[C@H](OC(C)=O)CC[C@]5(C)[C@H]4C[C@H](OC(C)=O)[C@]23C)nc2ccccc12
pIC50 [1]: 5.39
Ratio IC50 [7]: 108.2
pIC50 [2]: 6.24
selectivity ratio (in vitro): 7.1
Ratio IC50 (Plasmodium falciparum [8]): 12.5
pIC50 (Plasmodium falciparum [3]): 7.11
selectivity ratio [4]: 53

SMILES: C=C[C@H]1CN2CC[C@H]1C[C@H]2[C@H](O)c1cc(CC[C@@H](C)[C@H]2CC[C@H]3[C@@H]4[C@H](OC(C)=O)C[C@@H]5C[C@H](OC(C)=O)CC[C@]5(C)[C@H]4C[C@H](OC(C)=O)[C@]23C)nc2ccccc12
pIC50 [1]: 5.17
Ratio IC50 [7]: 42.4
pIC50 [2]: 5.83
selectivity ratio (in vitro): 4.6
Ratio IC50 (Plasmodium falciparum [8]): 23.7
pIC50 (Plasmodium falciparum [3]): 7.39
selectivity ratio [4]: 165

SMILES: C=C[C@H]1CN2CC[C@H]1C[C@H]2[C@H](O)c1cc(CC[C@@H](C)[C@H]2CC[C@H]3[C@@H]4[C@H](O)[C@H](O)[C@@H]5C[C@H](O)CC[C@]5(C)[C@H]4CC[C@]23C)nc2ccccc12
pIC50 [1]: 5.27
Ratio IC50 [7]: 100.5
pIC50 [2]: 6.21
selectivity ratio (in vitro): 8.6
Ratio IC50 (Plasmodium falciparum [8]): 2.5
pIC50 (Plasmodium falciparum [3]): 6.41
selectivity ratio [4]: 14

The next lines start with results.

pIC50 [2]: 6.28
SMILES: C=C[C@H]1CN2CC[C@H]1C[C@H]2[C@H](O)c1cc(CC[C@@H](C)[C@H]2CC[C@H]3[C@@H]4C[C@H](O)[C@@H]5C[C@H](O)CC[C@]5(C)[C@H]4CC[C@]23C)nc2ccccc12
pIC50 [1]: 5.48
Ratio IC50 [7]: 116.7
selectivity ratio (in vitro): 6.2
Ratio IC50 (Plasmodium falciparum [8]): 10.5
pIC50 (Plasmodium falciparum [3]): 7.04
selectivity ratio [4]: 36

pIC50 [2]: 6.18
SMILES: C=C[C@H]1CN2CC[C@H]1C[C@H]2[C@H](O)c1cc(CC[C@@H](C)[C@H]2CC[C@H]3[C@@H]4CC[C@@H]5C[C@H](O)CC[C@]5(C)[C@H]4C[C@H](O)[C@]23C)nc2ccccc12
pIC50 [1]: 5.25
Ratio IC50 [7]: 94.8
selectivity ratio (in vitro): 8.6
Ratio IC50 (Plasmodium falciparum [8]): 3
pIC50 (Plasmodium falciparum [3]): 6.49
selectivity ratio [4]: 18

pIC50 [2]: 5.76
SMILES: C=C[C@H]1CN2CC[C@H]1C[C@H]2[C@H](O)c1cc(CC[C@@H](C)[C@H]2CC[C@H]3[C@@H]4[C@H](O)C[C@@H]5C[C@H](O)CC[C@]5(C)[C@H]4C[C@H](O)[C@]23C)nc2ccccc12
pIC50 [1]: 5.09
Ratio IC50 [7]: 35.6
selectivity ratio (in vitro): 4.6
Ratio IC50 (Plasmodium falciparum [8]): 0.5
pIC50 (Plasmodium falciparum [3]): 5.74
selectivity ratio [4]: 4
